Source: paper PMC3132048, “Treatment of experimental adjuvant arthritis with a novel folate receptor-targeted folic acid-aminopterin conjugate” (Arthritis Research & Therapy, 2011)
Marks after values point to notes of the source that are not given here.

How the values were obtained:
[1] = system: arthritis; set-up: method as in PMID 16170572; conditions: murine arthritis; cited from earlier work
[2] = Preliminary short-term toxicity / MTD in folate-deficient healthy rats; type: in vivo, rat; conditions: rat, in vivo, sc; healthy rats on folate-deficient diet, four s.c. doses in 2 weeks; read-out: Maximum tolerated dose (MTD)
Protocol: The short-term toxicity and MTD of EC0746 and AMT were evaluated in healthy rats following the standard BIW subcutaneous dosing regimen used for efficacy studies. Further, these animals were put on a folate-deficient diet for ~20 days before treatment to match the folate deficiency status of AIA rats used for therapy. The folate-deficient but nonarthritic animals were thus given increasing doses of EC0746 and AMT for two consecutive weeks on a BIW basis. […] Standard hematologic and blood chemistry parameters were examined as needed along with histopathology.

[3] = system: rat TG-macs; test: Viability of thioglycollate-elicited peritoneal macrophages; type: cell-based; conditions: 72-hour incubation; no effect at concentrations as high as stated
Protocol: Female Lewis rats (175 to 200 g) were purchased from Harlan Sprague Dawley (Indianapolis, IN, USA) and were allowed to acclimate for 1 week. To obtain peritoneal macrophages, rats were dosed intraperitoneally with an aged thioglycollate (TG) medium (20 ml/kg) and euthanized 3 days later. The peritoneal cavity of the animals was lavaged with 60 ml ice-cold phosphate-buffered saline to collect peritoneal exudate. The TG-elicited macrophages in the peritoneal fluids were obtained after a red cell lysing step and a 2-hour adherence in folate-free RPMI 1640 medium (Mediatech, Manassas, VA, USA) containing 1% heat-activated fetal calf serum and antibiotics. The purity of the resulting macrophage population (herein referred to as rat TG-macs) was determined to be ~90% pure based on CD11b/c expression (data not shown). […] Unless otherwise specified, all cells were maintained in the folate-free RPMI 1640 medium containing 10% heat-activated fetal calf serum and antibiotics (FFRPMI) under a 5% CO2 atmosphere.
Unlike RAW264.7 cells, rat TG-macs display little proliferative activity ex vivo and therefore were used in our studies to represent inflammatory macrophages in a low proliferative state. […] LPS (5 μg/ml) and IFNγ (100 ng/ml) were then added to the treated cells 24 hours prior to the end of incubation to stimulate the release of cytokines/chemokines, which were then detected with a rat cytokine antibody array.

[4] = system: air-pouch inflammation; set-up: method as in PMID 16170572; conditions: murine air-pouch inflammation; cited from earlier work
[5] = biological target: T1, FRα (FRα-expressing KB cells) (Homo sapiens, UniProt P15328); test: Relative affinity assay: displacement of [3H]FA from KB cells; type: binding; conditions: 37°C, competitor of [3H]FA, inverse molar ratio to displace 50%
T1 construct: both KB cells and CHO-FRβ cells were used as the sources of FR; endogenous in cells; host or cells: KB cells
Protocol: (§1) The relative affinities of EC0746, AMT, and MTX were determined according to a previously established method except that both KB cells and CHO-FRβ cells were used as the sources of FR [33]. KB cells are a human cancer cell line known for elevated expression of FRα. CHO-FRβ cells were obtained from Manohar Ratnam, Department of Biochemistry and Cancer Biology, The University of Toledo (Toledo, OH, USA). This cell line was originally generated by stable integration and amplification of a human FRβ cDNA expression construct in CHO-K1 cells.

[6] = system: RAW264.7 cells; type: cell-based, murine; conditions: RAW264.7 macrophages, data not shown
Protocol: (§2) RAW264.7 cells in 96-well plates (3.5 × 10^4 cells/well) were treated with 10-fold serial dilutions of EC0746 (≤1 μM) in FFRPMI medium without and with 100-fold molar excess of FA. After a 2-hour exposure, the drug-containing media were replaced and the cells were allowed to incubate further for 70 hours (referred in the text as a 70-hour chase). In comparison, the cells were also treated continuously with AMT for 72 hours. Four hours prior to the end of incubation, LPS was added to the treated cells at a final concentration of 100 ng/ml. Then 100 μl culture supernatants were collected for TNFα analysis by ELISA. The cell viability was assessed by adding XTT to the remaining media for an additional 4 hours following the manufacturer's instructions. To evaluation of a cytostatic effect, RAW264.7 cells seeded at 1 × 10^6 cells/well in six-well plates were subjected to 2-hour exposure and a 70-hour chase with 0, 0.1, 10, and 1000 nM EC0746 without and with excess FA. At the end of the incubation (no LPS added), the surviving cells (that is, still viable cells) were recovered and redistributed in equal numbers in fresh medium for an additional 72 hours. The cell proliferation was again assessed by the XTT assay. All results were expressed as the percentage absorbance (minus background) relative to the untreated control cells.

[7] = system: adjuvant-induced arthritis; test: Rat adjuvant-induced arthritis (AIA) model; type: in vivo; conditions: for Body weight change (%): day 24 relative to day 10
Protocol: The rats were then inoculated intradermally (at the base of tail) with 0.5 mg heat-killed M. butyricum (BD Diagnostic Systems) in 100 μl light mineral oil (Sigma-Aldrich, St Louis, MO, USA). […] For each study, two or three rats from the same colony were not induced for arthritis and were used as healthy controls.
Unless noted otherwise, all drug treatments started on day 10 after arthritis induction and lasted for two consecutive weeks with biweekly (BIW, Mondays and Thursdays) or once-weekly (QW, Mondays) dosing regimens.
EC0746 was given subcutaneously (s.c.) in a dosing range of 25 to 1,000 nmol/kg (QW or BIW); MTX was given s.c. or orally at 250 nmol/kg (BIW) or 1,650 nmol/kg (QW); and etanercept (10 mg/kg) was given s.c. once every 3 days for a 12-day span. The QW MTX dosing regimen was to mimic MTX administration in humans, and this particular dose of 1,650 nmol/kg per week (that is, 0.75 mg/kg per week) was reportedly active as an intraperitoneal agent in the AIA model. To distinguish the anti-inflammatory mechanisms of EC0746 and MTX in vivo, a therapeutically irrelevant folate-containing competitor (EC0923, molecular weight 672) was used in 500-fold molar excess to block the activities of EC0746 and MTX at 250 nmol/kg (BIW).
Formalin-fixed hind paws were examined by a board-certified veterinary radiologist who had no knowledge of the study groups. Specific criteria were used to establish a numerical grade of severity for each radiographic change: increased soft tissue volume (0 to 4), narrowing or widening of joint spaces (0 to 5), subchondral erosion (0 to 3), periosteal reaction (0 to 4), osteolysis (0 to 4), subluxation (0 to 3), and degenerative joint changes (0 to 3). Scores are limited to the tarsus, and the maximum possible score per foot was 26 [39]. The histopathological analysis was also performed in a blind fashion by an independent contract laboratory (Bolder BioPATH Inc., Boulder, CO, USA). The arthritic ankles were scored on a scale of 0 to 5 for inflammation, bone resorption, pannus formation, and cartilage damage, with a maximal histology score of 20 per foot.

[8] = Plasma pharmacokinetics after single subcutaneous dose; type: in vivo, rat; conditions: female, Lewis, rat, plasma, sc, after single s.c. dose of unconjugated AMT 500 nmol/kg
Protocol: Female Lewis rats with jugular vein catheters (Harlan Sprague Dawley) were used to assess the plasma pharmacokinetics of EC0746 and unconjugated AMT. The animals were divided into two main groups, one given a single dose of EC0746 s.c. and the second a single dose of AMT s.c., both at 500 nmol/kg. Whole blood samples (300 μl) were collected from three animals per time point at the following time points: 1 minute, 10 minutes, 30 minutes, 1 hour, 2 hours, 3 hours, 4 hours, and 8 hours after injection. The blood samples were placed into anticoagulant tubes containing 1.7 mg/ml K3EDTA and 0.35 mg/ml N-maleoyl-β-alanine (0.35 mg/ml) in a 0.15% acetic acid solution. Plasma samples were obtained by centrifugation for 3 minutes at ~2,000 × g and stored at -80°C. The amounts of EC0746 and AMT in the plasma and the two primary metabolites of EC0746 (AMT and AMT hydrazide) were determined by liquid chromatography/mass spectrometry/mass spectrometry.

[9] = oral exposure, mice; cited from earlier work
[10] = system: TNFα production in RAW264.7 cells; test: LPS-stimulated TNFα production (ELISA); type: cell-based, murine; conditions: RAW264.7 macrophages, data not shown
Protocol: as §2

[11] = biological target: T2, human FRβ (CHO-FRβ cells) (Homo sapiens, UniProt P14207); test: Relative affinity assay: displacement of [3H]FA from CHO-FRβ cells; type: binding; conditions: 37°C, competitor of [3H]FA, inverse molar ratio to displace 50%
T2 construct: host or cells: CHO-K1 cells
Protocol: as §1

[12] = biological target: T3, dihydrofolate reductase (DHFR) (Mus musculus, UniProt P00375); test: Dihydrofolate reductase inhibition assay in RAW264.7 whole cell lysates; type: cell-based, murine; conditions: FA alone 10 μM, 2-hour pulse, 22-hour chase
T3 construct: endogenous in cells; host or cells: RAW264.7 cells (FR-positive subclone of ATCC TIB71)
T3 sequence (P00375 1-187): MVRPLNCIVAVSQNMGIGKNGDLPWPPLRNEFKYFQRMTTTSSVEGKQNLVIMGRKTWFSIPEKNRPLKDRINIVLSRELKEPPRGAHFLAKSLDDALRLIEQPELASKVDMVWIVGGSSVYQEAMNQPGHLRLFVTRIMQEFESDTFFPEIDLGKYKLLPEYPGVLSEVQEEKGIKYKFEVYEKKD
Protocol: RAW264.7 cells growing in FFRPMI medium in 10 cm cell culture dishes (BD Falcon, Lincoln Park, NJ, USA) were treated with EC0746 (100 nM), EC0746 (100 nM) plus 100-fold molar excess of FA (10 μM), or FA alone (10 μM). After a 2-hour exposure, the drug-containing media were replaced and the cells were allowed to incubate further for 22 hours in fresh FFRPMI medium (referred in the text as a 22-hour chase). Meanwhile, AMT and MTX were kept at 100 nM for the entire 24-hour incubation period. All cells were subsequently lysed in the radioimmunoprecipitation assay lysis buffer, and DHFR activities in the whole cell lysates were determined using a commercial DHFR assay kit (Sigma-Aldrich). This spectrophotometric assay monitors the enzymatic conversion of dihydrofolic acid to tetrahydrofolic acid by DHFR and the disappearance of the co-factor nicotinamide adenine dinucleotide phosphate at 340 nm. The results were normalized to the values of the untreated control cells.

[13] = set-up: method as in PMID 10726889; conditions: rats, 0.1 mg/kg; cited from earlier work
[14] = s.c., 125 μmol/kg biweekly, alone
[15] = s.c., 1,650 nmol/kg once weekly
[16] = s.c., 10 mg/kg on days 10, 13, 16, 19, 22

T1 sequence (P15328 25-257): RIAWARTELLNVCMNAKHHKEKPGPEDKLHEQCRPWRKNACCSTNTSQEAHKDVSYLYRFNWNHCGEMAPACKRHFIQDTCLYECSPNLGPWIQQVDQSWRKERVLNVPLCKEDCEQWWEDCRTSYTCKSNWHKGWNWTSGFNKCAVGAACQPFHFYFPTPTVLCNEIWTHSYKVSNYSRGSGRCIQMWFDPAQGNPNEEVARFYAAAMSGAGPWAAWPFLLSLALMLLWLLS
T2 sequence (P14207 17-255): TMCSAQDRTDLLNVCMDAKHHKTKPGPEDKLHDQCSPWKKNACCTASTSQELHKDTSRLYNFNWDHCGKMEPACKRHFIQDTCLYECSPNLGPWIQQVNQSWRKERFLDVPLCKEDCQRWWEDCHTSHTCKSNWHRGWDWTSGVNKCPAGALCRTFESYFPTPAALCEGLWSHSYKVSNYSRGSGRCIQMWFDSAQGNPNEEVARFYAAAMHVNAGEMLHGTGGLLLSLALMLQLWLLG

Nc1nc(N)c2nc(CNc3ccc(C(=O)N[C@@H](CCC(=O)O)C(=O)O)cc3)cnc2n1 [AMT, aminopterin]
Potency relative to MTX [1]: ~ 20 fold | MTD at 2 weeks [2]: 0.05 µmol/kg | Concentration affecting TG-macs viability [3]: > 10 µM | Potency relative to MTX [4]: ~ 40 fold | Relative affinity value (FA = 1) [5]: 0.004 | Potency in inhibition of cell proliferation, AMT versus AMT hydrazide [6]: equally potent | Tolerability in AIA rats ([7]; unmodified AMT mixed with FA (1:1), 500 nmol/kg s.c. biweekly, after one or two doses, severe anemia and gastrointestinal distress): all animals treated with the simple mixture had to be euthanized | Tmax ([8]; 500 nmol/kg, read-out: Time to maximum concentration (converted)): ~0.5 h | AUC ([8]; read-out: Area under the curve (converted)): 1.02 µM·h | half-life ([8]; read-out: Elimination half-life): ~2.33 h | Cmax ([8]; read-out: Maximum concentration in plasma): 601 nM | Acute 50% lethal dose [9]: 3 mg/kg | Potency in inhibition of LPS-stimulated TNFα production, AMT versus AMT hydrazide [10]: equally potent | Relative affinity value (FA = 1) [11]: 0.004

Nc1nc2ncc(CNc3ccc(C(=O)N[C@@H](CCC(=O)N[C@H](CC(=O)O)C(=O)N[C@H](CC(=O)O)C(=O)O)C(=O)O)cc3)nc2c(=O)[nH]1 [EC0923, pteroyl-γGlu-d-Asp-d-Asp, reference compound]
Impact on development or severity of arthritis [7, 14]: did not have any impact | Radiographic analysis of arthritic paws [7, 14]: significant joint erosions

Nc1nc(=O)c2nc(CNc3ccc(C(=O)N[C@@H](CCC(=O)O)C(=O)O)cc3)cnc2[nH]1 [FA, folic acid]
Effect on DHFR activity of cells [12]: benign

CN(Cc1cnc2nc(N)nc(N)c2n1)c1ccc(C(=O)N[C@@H](CCC(=O)O)C(=O)O)cc1 [MTX, methotrexate, reference compound]
Concentration affecting TG-macs viability [3]: > 10 µM | Relative affinity value (FA = 1) [5]: 0.018 | Decrease in summed histology score ([7]; oral, 250 nmol/kg biweekly): 73% | Reduction in dorsal to ventral paw thickness ([7]; oral, 250 nmol/kg biweekly): 63% | Weight loss due to disease progression ([7]; oral, 1,650 nmol/kg (0.75 mg/kg) once weekly): ~ 10% | Splenomegaly (percentage increase in spleen weight relative to healthy rats) ([7]; p.o., 250 nmol/kg biweekly from day 10): 42 ± 17% | Inhibition in paw edema (%) ([7]; p.o., 250 nmol/kg biweekly from day 10, paw weight day 24): 70 ± 5% | Body weight change (%) ([7]; p.o., 250 nmol/kg biweekly): -14 ± 2% | Inhibition in paw edema (%) ([7]; p.o., 1,650 nmol/kg once weekly, calculated based on arthritis scores on day 24): 47 ± 10^f % | Body weight change (%) ([7]; p.o., 1,650 nmol/kg once weekly): -10 ± 2% | Splenomegaly (percentage increase in spleen weight relative to healthy rats) ([7]; s.c., 250 nmol/kg biweekly from day 10): 24 ± 3% | Inhibition in paw edema (%) ([7]; s.c., 250 nmol/kg biweekly from day 10, paw weight day 24): 78 ± 10% | Anti-arthritic activity in presence of EC0923 competitor ([7]; s.c., 250 nmol/kg biweekly plus EC0923 125 μmol/kg, P > 0.05): not significantly blocked | Body weight change (%) ([7]; s.c., 250 nmol/kg biweekly): -2 ± 4% | Weight loss [7, 15]: ~ 7% | Inhibition in paw edema (%) ([7]; s.c., 1,650 nmol/kg once weekly, calculated based on arthritis scores on day 24): 63 ± 13^f % | Body weight change (%) [7, 15]: -7 ± 8% | Acute 50% lethal dose [9]: 89 mg/kg | Relative affinity value (FA = 1) [11]: 0.005 | Oral bioavailability [13]: 21%

Etanercept
Splenomegaly (percentage increase in spleen weight relative to healthy rats) ([7]; s.c., 10 mg/kg every 3 days): 42 ± 7% | Inhibition in paw edema (%) ([7]; s.c., 10 mg/kg every 3 days, calculated based on arthritis scores on day 24): 46 ± 9^f % | Body weight change (%) ([7]; s.c., 10 mg/kg every 3 days): -15 ± 2% | Decrease in summed histology score [7, 16]: 43% | Reduction in bone resorption (histology) [7, 16]: 55% | Reduction in dorsal to ventral paw thickness [7, 16]: 40% | Reduction in inflammation (histology) [7, 16]: 42%
